Reference: ChEMBL document CHEMBL1201862, “PubChem BioAssay data set” (2004)
Calls of active or inactive are those of the source.

Assays:
[1] = target: Cytochrome P450 2C19 (Homo sapiens, UniProt P33261); test: Cytochrome panel assay with activity outcomes. Panel member name: p450-cyp2c19 Compounds with AC50 equal or less than 10 uM are considered active; assay type: functional
[2] = target: Cytochrome P450 2C9 (Homo sapiens, UniProt P11712)
[3] = viability of uninfected HEp-2 cells – cell-based, HTS, cytotoxicity control for RSV inhibitor project, dose response (AID 2410); assay type: functional; conditions: human respiratory syncytial virus
[4] = target: T1, Replicative DNA helicase DnaB (Mycobacterium tuberculosis, UniProt P9WMR3); test: DnaB intein splicing inhibitors, dose response, biochemical, cell-free fluorescence (AID 449749); assay type: functional
T1 sequence (P9WMR3 whole entry): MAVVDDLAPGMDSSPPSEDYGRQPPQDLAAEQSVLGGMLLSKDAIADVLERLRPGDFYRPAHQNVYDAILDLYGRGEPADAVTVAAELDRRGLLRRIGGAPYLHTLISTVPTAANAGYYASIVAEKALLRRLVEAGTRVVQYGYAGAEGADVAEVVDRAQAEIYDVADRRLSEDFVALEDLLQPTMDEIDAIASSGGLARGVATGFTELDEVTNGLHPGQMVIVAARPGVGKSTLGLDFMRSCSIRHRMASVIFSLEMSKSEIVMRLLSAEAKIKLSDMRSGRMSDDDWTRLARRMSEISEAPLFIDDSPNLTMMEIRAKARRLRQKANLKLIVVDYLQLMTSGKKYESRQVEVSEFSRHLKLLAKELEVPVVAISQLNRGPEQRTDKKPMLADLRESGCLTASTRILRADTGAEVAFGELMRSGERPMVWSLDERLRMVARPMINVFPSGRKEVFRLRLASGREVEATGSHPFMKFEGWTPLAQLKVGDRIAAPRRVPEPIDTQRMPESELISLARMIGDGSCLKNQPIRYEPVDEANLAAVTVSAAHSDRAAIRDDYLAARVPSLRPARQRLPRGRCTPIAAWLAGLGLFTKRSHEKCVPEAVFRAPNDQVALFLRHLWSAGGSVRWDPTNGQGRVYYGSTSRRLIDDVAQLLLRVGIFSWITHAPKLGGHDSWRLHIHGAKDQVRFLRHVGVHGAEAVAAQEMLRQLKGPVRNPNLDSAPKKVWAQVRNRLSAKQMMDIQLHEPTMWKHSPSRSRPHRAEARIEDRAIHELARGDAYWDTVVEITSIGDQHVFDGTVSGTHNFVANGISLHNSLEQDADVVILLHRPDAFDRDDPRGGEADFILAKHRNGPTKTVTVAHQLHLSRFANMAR

[5] = target: T2, Protein RecA (Mycobacterium tuberculosis, UniProt P9WHJ3); test: Fluorescence Cell-Free Homogeneous Dose Retest to Identify Inhibitors of RecA-Intein Splicing Activity. [Related pubchem assays (depositor defined):AID2097, AID2223, AID489010, AID492950]; assay type: functional
T2 sequence (P9WHJ3 whole entry): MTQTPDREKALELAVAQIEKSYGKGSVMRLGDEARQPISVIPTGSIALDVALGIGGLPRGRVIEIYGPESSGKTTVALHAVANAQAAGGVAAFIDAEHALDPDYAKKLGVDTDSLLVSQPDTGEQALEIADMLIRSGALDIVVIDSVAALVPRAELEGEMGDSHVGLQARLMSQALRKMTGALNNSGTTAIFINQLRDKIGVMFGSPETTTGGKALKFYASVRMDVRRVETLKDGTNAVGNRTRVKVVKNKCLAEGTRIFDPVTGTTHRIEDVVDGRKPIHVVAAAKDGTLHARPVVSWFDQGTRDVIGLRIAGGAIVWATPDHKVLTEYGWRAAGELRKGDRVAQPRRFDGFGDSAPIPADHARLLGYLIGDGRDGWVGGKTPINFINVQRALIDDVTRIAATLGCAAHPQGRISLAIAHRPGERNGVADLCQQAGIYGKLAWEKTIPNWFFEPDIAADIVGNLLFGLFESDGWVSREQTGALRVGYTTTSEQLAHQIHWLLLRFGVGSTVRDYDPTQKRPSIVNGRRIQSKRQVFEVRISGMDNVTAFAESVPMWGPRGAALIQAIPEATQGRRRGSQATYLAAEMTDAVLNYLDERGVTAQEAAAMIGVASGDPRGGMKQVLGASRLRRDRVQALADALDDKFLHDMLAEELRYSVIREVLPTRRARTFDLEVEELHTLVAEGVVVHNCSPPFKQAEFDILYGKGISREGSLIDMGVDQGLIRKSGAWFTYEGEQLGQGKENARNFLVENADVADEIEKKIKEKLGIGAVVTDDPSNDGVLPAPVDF

[6] = Trypanosoma cruzi growth suppression in host cells – NIH3T3 host cells, beta-gal luminescence, confirmation (AID 2044); assay type: functional, cell-based;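 also: intracellular parasites grown in NIH/3T3 mouse fibroblasts as host cells; luminescent beta-galactosidase reporter signal from transgenic T. cruzi replicating inside host cells; inhibitors lower the luminescence signal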
[7] = NIH3T3 cell viability loss – ATP luminescence, mouse fibroblasts, counter-screen, dose response (AID 2010); assay type: functional, cell-based;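 also: cells exposed to compound for about 90 hours before reading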
[8] = target: Cytochrome P450 2D6 (Homo sapiens, UniProt P10635);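 also: CYP2D6 member of a cytochrome P450 panel assay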
Cytochrome P450 2D6, sequence (P10635 whole entry): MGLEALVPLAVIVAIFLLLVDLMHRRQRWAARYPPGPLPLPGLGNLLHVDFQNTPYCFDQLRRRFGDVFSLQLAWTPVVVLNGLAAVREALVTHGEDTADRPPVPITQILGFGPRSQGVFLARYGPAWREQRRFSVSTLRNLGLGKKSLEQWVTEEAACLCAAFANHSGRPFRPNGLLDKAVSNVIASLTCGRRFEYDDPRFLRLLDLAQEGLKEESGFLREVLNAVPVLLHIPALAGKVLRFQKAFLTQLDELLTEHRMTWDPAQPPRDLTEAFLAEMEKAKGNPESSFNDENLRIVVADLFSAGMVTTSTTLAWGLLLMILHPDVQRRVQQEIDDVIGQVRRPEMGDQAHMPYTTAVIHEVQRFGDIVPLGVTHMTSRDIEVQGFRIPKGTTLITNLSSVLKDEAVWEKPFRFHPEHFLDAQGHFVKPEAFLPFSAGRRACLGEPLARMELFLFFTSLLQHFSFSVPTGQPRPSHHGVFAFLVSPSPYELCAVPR

[9] = target: T3, Corticotropin-releasing factor receptor 2/Corticotropin-releasing factor-binding protein (Homo sapiens, UniProt P24387+Q13324); test: Dose Response confirmation of uHTS hits for small molecule antagonists of the CRF-binding protein and CRF-R2 receptor complex.; assay type: functional; conditions: read-out: IC50_Mean
T3 sequence (Q13324 whole entry): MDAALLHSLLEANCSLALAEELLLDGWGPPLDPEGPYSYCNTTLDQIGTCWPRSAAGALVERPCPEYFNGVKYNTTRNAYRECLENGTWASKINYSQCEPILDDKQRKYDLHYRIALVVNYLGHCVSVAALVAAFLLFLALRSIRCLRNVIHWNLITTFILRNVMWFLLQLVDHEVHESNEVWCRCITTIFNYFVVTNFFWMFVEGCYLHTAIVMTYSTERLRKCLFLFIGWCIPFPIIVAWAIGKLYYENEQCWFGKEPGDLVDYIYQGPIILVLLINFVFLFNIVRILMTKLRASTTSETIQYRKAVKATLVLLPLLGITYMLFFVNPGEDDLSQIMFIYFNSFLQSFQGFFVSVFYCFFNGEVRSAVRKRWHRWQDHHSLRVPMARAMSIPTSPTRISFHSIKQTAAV
T3 sequence (P24387 whole entry): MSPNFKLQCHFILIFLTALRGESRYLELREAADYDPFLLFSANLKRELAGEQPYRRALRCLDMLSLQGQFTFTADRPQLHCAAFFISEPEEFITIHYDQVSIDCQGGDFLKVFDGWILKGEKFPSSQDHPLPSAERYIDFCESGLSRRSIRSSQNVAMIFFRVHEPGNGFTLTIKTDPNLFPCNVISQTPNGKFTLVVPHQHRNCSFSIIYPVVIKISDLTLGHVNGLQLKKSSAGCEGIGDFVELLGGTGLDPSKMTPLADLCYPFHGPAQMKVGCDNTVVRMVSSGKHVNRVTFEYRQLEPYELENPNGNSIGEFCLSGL

[10] = target: T3, Corticotropin-releasing factor receptor 2/Corticotropin-releasing factor-binding protein; test: activators of CRF receptor 2 with binding protein – uHTS hits, confirmation (AID 602473); assay type: functional; conditions: read-out: EC50_Mean

Cytochrome P450 2C19, sequence (P33261 whole entry): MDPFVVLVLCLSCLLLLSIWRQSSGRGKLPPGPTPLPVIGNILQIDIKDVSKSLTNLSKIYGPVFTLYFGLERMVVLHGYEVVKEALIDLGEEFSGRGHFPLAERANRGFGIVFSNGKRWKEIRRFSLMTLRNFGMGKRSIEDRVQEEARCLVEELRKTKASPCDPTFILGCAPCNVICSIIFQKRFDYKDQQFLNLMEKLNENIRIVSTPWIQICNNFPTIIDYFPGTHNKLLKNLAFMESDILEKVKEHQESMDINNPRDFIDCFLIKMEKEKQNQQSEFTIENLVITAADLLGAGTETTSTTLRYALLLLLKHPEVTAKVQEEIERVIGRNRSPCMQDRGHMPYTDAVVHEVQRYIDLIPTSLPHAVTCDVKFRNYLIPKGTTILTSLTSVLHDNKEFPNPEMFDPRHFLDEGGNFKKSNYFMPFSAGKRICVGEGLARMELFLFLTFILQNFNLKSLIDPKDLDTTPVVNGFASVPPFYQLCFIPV
Cytochrome P450 2C9, sequence (P11712 whole entry): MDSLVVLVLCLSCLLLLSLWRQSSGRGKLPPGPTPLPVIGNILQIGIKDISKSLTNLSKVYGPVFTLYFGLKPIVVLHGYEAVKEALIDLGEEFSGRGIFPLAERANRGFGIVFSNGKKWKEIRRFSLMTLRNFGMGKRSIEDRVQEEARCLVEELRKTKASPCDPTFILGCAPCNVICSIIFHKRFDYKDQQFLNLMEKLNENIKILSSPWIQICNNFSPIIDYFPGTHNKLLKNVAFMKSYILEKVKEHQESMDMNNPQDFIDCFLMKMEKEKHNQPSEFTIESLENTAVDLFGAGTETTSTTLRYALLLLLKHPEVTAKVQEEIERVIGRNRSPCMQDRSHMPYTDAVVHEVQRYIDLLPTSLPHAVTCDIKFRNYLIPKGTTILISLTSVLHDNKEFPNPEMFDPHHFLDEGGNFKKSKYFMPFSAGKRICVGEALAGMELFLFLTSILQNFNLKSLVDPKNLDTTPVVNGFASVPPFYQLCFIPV

## O=P(O)(COc1ccccc1)COc1ccccc1
[1]; read-out: AC50
  AC50: 28.2 µM (inconclusive)
[2]
  AC50: 14.1 µM (inconclusive)

## O=C1Nc2ccccc2/C1=N/NS(=O)(=O)c1ccc(C(=O)O)cc1
[1]
  AC50: inconclusive

## C=CCc1cccc(CNc2nc3ccccc3n2C)c1O
[3]
  CC50: 25.9 µM (active)

## COc1cccc(C(=O)NCCN2CCOCC2)c1
[1]; read-out: AC50
  AC50: 20 µM (inconclusive)
[2]
  AC50: 3.55 µM (inconclusive)

## Cc1nc(N2CCOCC2)c(C#N)c(C)c1Br
[3]
  CC50: 30.6 µM (active)

## COCCNc1nc(-c2ccccc2Cl)nc2ccccc12
[1]; read-out: AC50
  AC50: 0.0316 µM (inconclusive)

## O=C1C(Cl)=C(N2CCCCC2)C(=O)N1c1ccccc1Cl
[4]
  AC50: 4.64 µM (active)
[5]
  EC50: 2.45 µM (active)

## COC1=C(C)C(=O)c2c(c(COC(N)=O)c3n2C[C@@H]2[C@@H]3N2C)C1=O (stereo partly drawn)
[1]; read-out: AC50
  AC50: 0.794 µM (inconclusive)

## O=C(O)c1ccc([N+](=O)[O-])c2c1C(=O)c1ccccc1C2=O
[4]
  AC50: 29 µM (active)
[5]
  EC50: 6.78 µM (active)

## O=C(CCn1c(=O)[nH]c2ccsc2c1=O)Nc1ccc(F)c(F)c1
[2]
  AC50: 2.82 µM (inconclusive)

## Cc1ccccc1-c1nc(CN(C)C(C)c2ccon2)c(C)o1 (stereo not drawn)
[4]
  AC50: 3.11 µM (active)
[5]
  EC50: 1.15 µM (active)

## O=[N+]([O-])c1cc(-c2nnc(C34CC5CC(CC(C5)C3)C4)o2)cc([N+](=O)[O-])c1
[3]
  CC50: > 50 µM (active)
[6]
  EC50: 0.77 µM (active)
[7]
  EC50: > 60 µM (not active)

## COc1ccc(-c2cc(C(F)(F)F)nc(N3CCCCCC3)n2)cc1
[3]
  CC50: 28.2 µM (active)

## O=C(Cc1cc(O)n[nH]1)N/N=C/c1cccc2ccccc12
[4]
  AC50: 4.55 µM (active)
[5]
  EC50: 0.694 µM (active)

## CC(C)C(NS(=O)(=O)c1cccs1)C(=O)Nc1nc(C(C)(C)C)cs1 (stereo not drawn)
[3]
  CC50: 13.5 µM (active)

## CC(C)(C)C(=O)Nc1ccc(C(=O)OC2CCCCC2)cc1
[3]
  CC50: 37.3 µM (active)

## CN1CCN(c2ccc([N+](=O)[O-])cc2C(=O)N2CCOCC2)CC1
[1]
  AC50: inconclusive

## Cc1cc(N)n2ncc(-c3cccc(Br)c3)c2n1
[3]
  CC50: > 50 µM (active)

## N#Cc1cccc(-c2cncnc2NCc2cccs2)c1
[8]
  AC50: 31.6 µM (inconclusive)
[2]
  AC50: 0.501 µM (inconclusive)

## COc1ccc(-c2cc(C)no2)cc1S(=O)(=O)N1CCN(C(=O)c2ccco2)CC1
[9]
  IC50: > 47.1 µM (inactive)
[10]
  EC50: > 53 µM (inactive)

## CC(C)(C)c1ccccc1OCCN1CCCC1
[6]
  EC50: 1.35 µM (active)
[7]
  EC50: > 60 µM (not active)
[1]; read-out: AC50
  AC50: 35.5 µM (inconclusive)

## CC1CCN(CCCn2c(=S)[nH]c3ccc(N4CCOCC4)cc3c2=O)CC1
[1]
  AC50: inconclusive
[8]
  AC50: 22.4 µM (inconclusive)
[2]
  AC50: 20 µM (inconclusive)

## CC(=O)c1ccccc1OCCCOc1cccc2cccnc12
[3]
  CC50: 21.4 µM (active)

## CC1=C(C)CC2(SC1)C(=O)N(c1ccccc1)N=C2N (stereo not drawn)
[4]
  AC50: 10.3 µM (active)
[5]
  EC50: 3.4 µM (active)

## Cc1ccc(Nc2c(O)ncnc2O)cc1
[9]
  IC50: > 47.1 µM (inactive)
[10]
  EC50: > 53 µM (inactive)

## Cc1cc(NS(=O)(=O)c2c(C(=O)N3CCOCC3)c(C)n(C)c2C)ccc1Br
[9]
  IC50: > 47.1 µM (inactive)
[10]
  EC50: > 53 µM (inactive)

## CC(C)Cn1cnc2c(SCc3ccccc3)nc(N)nc21
[9]
  IC50: > 47.1 µM (inactive)
[10]
  EC50: > 53 µM (inactive)

## Cc1n[nH]c2c1C1(CCOCC1)C(C#N)=C(N)O2
[4]
  AC50: 3.57 µM (active)
[5]
  EC50: 2.83 µM (active)

## Cc1cc(C)n(-c2ccc(Cl)c(C(=O)O)n2)n1
[1]; read-out: AC50
  AC50: 6.31 µM (inconclusive)
[2]
  AC50: 4.47 µM (inconclusive)

## C#CCOc1ccc2c3c(c(=O)oc2c1)CCCC3
[3]
  CC50: 43.7 µM (active)

## NC(=O)[C@H]1CC2(CC(c3cccc(NC(=O)c4ccccc4)c3)=NO2)CN1C(=O)[C@H]1CCC(=O)N1 (stereo partly drawn)
[1]
  AC50: inconclusive

## Cc1nc2cnc(Oc3cccc(Cl)c3)nc2n(Cc2ccc(F)cc2)c1=O
[1]; read-out: AC50
  AC50: 31.6 µM (inconclusive)

## O=C(Nc1cccnc1)c1ccc(-c2ccc(Cl)cc2)o1
[9]
  IC50: > 47.1 µM (inactive)
[10]
  EC50: > 53 µM (inactive)

## C[N@+]1(CCC(=O)c2ccccc2)CC[C@H]2CC[C@H](C2)C1
[1]
  AC50: inconclusive

## Cc1cccc(CNc2ncnc3ccc(-c4ccccc4C#N)cc23)c1
[2]
  AC50: 0.501 µM (inconclusive)

## COc1ccc(C(=O)N2CCCCC2)cc1S(=O)(=O)Nc1ccccc1
[2]
  AC50: 14.1 µM (inconclusive)

## CN(C)c1ccc(-c2nc(NCCc3cnc[nH]3)c3ccccc3n2)cc1
[2]
  AC50: 0.794 µM (inconclusive)
